Laboratory results as given in US12459951B2, “Compounds that interact with RAS superfamily proteins for treatment of cancers, inflammatory diseases, rasopathies, and fibrotic disease” (SHY Therapeutics, LLC, priority 2022, dated 2025).

Tests used:
[1] = system: Akt phosphorylation; experiment: Akt Phosphorylation Assay (western blot), Panc-1; assay type: cell-based, human; details: at 10 μM, * = activation
In short: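 Panc-1 (KRas G12D) cells were treated with compound at 10 μM final (0.3% DMSO) for 6 h at 37 °C, or with serial dilutions for IC50. Cells were either serum-starved overnight in 0.5% FBS and then stimulated with 1.5 ng/ml EGF for 15 min, or kept in 10% FBS without stimulation. Akt Ser473 phosphorylation in lysates was read by western blot.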

[2] = system: KRas G12D mutant; experiment: Ras GTP Binding Domain Inhibition Assay (Ras Superfamily Assay); details: at 20 μM; for KRas G12D mutant + SOS: % inh.: with SOS; for KRas G12D mutant: % inh.: without SOS
In short: (§1)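 Binding of 100 nM fluorescent GTP (Cy3 or Cy5, 45 min, room temperature) was read after washes from plate-captured His-tagged protein. Beforehand, compounds at 20 μM or in dilution series for IC50 sat 3 h on the protein in Tris buffer pH 7.4 or 7.0 with 1% DMSO, Sos GEF optionally added for the last hour.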

[3] = system: KRas wild type; experiment: as above; details: at 20 μM; for KRas wild type + SOS: % inh.: with SOS; for KRas wild type: % inh.: without SOS
In short: as §1

[4] = target: T1, Rac-1 (Homo sapiens, UniProt P63000); experiment: as above; details: read-out: Rac-1: % inh.
T1 construct: made in house
In short: as §1

| Structure (SMILES) | KRas G12D mutant + SOS: % inh. [2] | KRas G12D mutant: % inh. [2] | KRas wild type + SOS: % inh. [3] | KRas wild type: % inh. [3] | inhibition at 20 µM [4] [%] | % inh of Akt phosphorylation in Panc-1 [1] |
| --- | --- | --- | --- | --- | --- | --- |
| Cc1c(-c2ccn(C)n2)cn2nc(-c3nccn3C)nc(Nc3cc(C(F)F)[nH]n3)c12 [Compound 258, N-(5-(Difluoromethyl)-1H-pyrazol-3-yl)-5-methyl-2-(1-methyl-1H-imidazol-2-yl)-6-(1-methyl-1H-pyrazol-3-yl)pyrrolo[2,1-f][1,2,4]triazin-4-amine] | 0 (0 = 0% inhibition) | 0 (0 = 0% inhibition) | 0 (0 = 0% inhibition) | A (A = 1-25% inhibition) | 0 | A (1-25% inhibition) |
| CO[C@H]1C[C@H](Nc2nc(-c3nccn3C)nn3cc(-c4ccn(C)n4)c(C4CC4)c23)C1 [Compound 275, 5-Cyclopropyl-N-((1r,3r)-3-methoxycyclobutyl)-2-(1-methyl-1H-imidazol-2-yl)-6-(1-methyl-1H-pyrazol-3-yl)pyrrolo[2,1-f][1,2,4]triazin-4-amine] | A (A = 1-25% inhibition) | A (A = 1-25% inhibition) | 0 (0 = 0% inhibition) | A (A = 1-25% inhibition) | 1 to 25 | D* (85-100% activation) |
| Cc1c(-c2ccn(C)n2)cn2nc(-c3nccn3C)nc(Nc3cc(-c4ccccn4)ccn3)c12 [Compound 248, N-([2,4′-Bipyridin]-2′-yl)-5-methyl-2-(1-methyl-1H-imidazol-2-yl)-6-(1-methyl-1H-pyrazol-3-yl)pyrrolo[2,1-f][1,2,4]triazin-4-amine] | D (D = 76-100% inhibition) | D (D = 76-100% inhibition) | D (D = 76-100% inhibition) | D (D = 76-100% inhibition) | 76 to 100 | D* (85-100% activation) |
| Cc1c(-c2ccn(C)n2)cn2nc(-c3nccn3C)nc(Nc3cc(C(C)C)[nH]n3)c12 [Compound 268, N-(5-Isopropyl-1H-pyrazol-3-yl)-5-methyl-2-(1-methyl-1H-imidazol-2-yl)-6-(1-methyl-1H-pyrazol-3-yl)pyrrolo[2,1-f][1,2,4]triazin-4-amine] | D (D = 76-100% inhibition) | C (C = 50-75% inhibition) | D (D = 76-100% inhibition) | C (C = 50-75% inhibition) | 76 to 100 | D* (85-100% activation) |
| Cc1c(-c2ccn(C)n2)cn2nc(-c3nccn3C)nc(-n3[nH]c(N)cc3=O)c12 [Compound 261, 5-Amino-2-(5-methyl-2-(1-methyl-1H-imidazol-2-yl)-6-(1-methyl-1H-pyrazol-3-yl)pyrrolo[2,1-f][1,2,4]triazin-4-yl)-1,2-dihydro-3H-pyrazol-3-one] | C (C = 50-75% inhibition) | D (D = 76-100% inhibition) | C (C = 50-75% inhibition) | C (C = 50-75% inhibition) | 76 to 100 | B (26-49% inhibition) |
| Cc1c(-c2ccn(C)n2)cn2nc(-c3nccn3C)nc(Nc3cc(C(F)(F)F)[nH]n3)c12 [Compound 259, 5-Methyl-2-(1-methyl-1H-imidazol-2-yl)-6-(1-methyl-1H-pyrazol-3-yl)-N-(5-(trifluoromethyl)-1H-pyrazol-3-yl)pyrrolo[2,1-f][1,2,4]triazin-4-amine] | D (D = 76-100% inhibition) | C (C = 50-75% inhibition) | D (D = 76-100% inhibition) | C (C = 50-75% inhibition) | 76 to 100 | D* (85-100% activation) |
| Cc1c(-c2ccn(C)n2)cn2nc(-c3nccn3C)nc(Nc3cc(-c4cccnc4)ccn3)c12 [Compound 250, N-([3,4′-Bipyridin]-2′-yl)-5-methyl-2-(1-methyl-1H-imidazol-2-yl)-6-(1-methyl-1H-pyrazol-3-yl)pyrrolo[2,1-f][1,2,4]triazin-4-amine] | D (D = 76-100% inhibition) | D (D = 76-100% inhibition) | D (D = 76-100% inhibition) | D (D = 76-100% inhibition) | 76 to 100 | D* (85-100% activation) |
| Cc1c(-c2ccn(C)n2)cn2nc(-c3nccn3C)nc(Nc3ccc(-c4ccccn4)cn3)c12 [Compound 249, N-([2,3′-Bipyridin]-6′-yl)-5-methyl-2-(1-methyl-1H-imidazol-2-yl)-6-(1-methyl-1H-pyrazol-3-yl)pyrrolo[2,1-f][1,2,4]triazin-4-amine] | C (C = 50-75% inhibition) | C (C = 50-75% inhibition) | C (C = 50-75% inhibition) | C (C = 50-75% inhibition) | 76 to 100 | D* (85-100% activation) |
| Cc1cc(Nc2nc(-c3nccn3C)nn3cc(-c4ccn(C)n4)c(C)c23)n[nH]1 [Compound 255, 5-Methyl-2-(1-methyl-1H-imidazol-2-yl)-6-(1-methyl-1H-pyrazol-3-yl)-N-(5-methyl-1H-pyrazol-3-yl)pyrrolo[2,1-f][1,2,4]triazin-4-amine] | D (D = 76-100% inhibition) | D (D = 76-100% inhibition) | D (D = 76-100% inhibition) | – | 76 to 100 | D* (85-100% activation) |
| Cc1c(-c2ccn(C)n2)cn2nc(-c3nccn3C)nc(Nc3cc[nH]n3)c12 [Compound 256, 5-Methyl-2-(1-methyl-1H-imidazol-2-yl)-6-(1-methyl-1H-pyrazol-3-yl)-N-(1H-pyrazol-3-yl)pyrrolo[2,1-f][1,2,4]triazin-4-amine] | D (D = 76-100% inhibition) | D (D = 76-100% inhibition) | D (D = 76-100% inhibition) | A (A = 1-25% inhibition) | 76 to 100 | D* (85-100% activation) |

Second part, led by results:

| KRas G12D mutant + SOS: % inh. [2] | KRas G12D mutant: % inh. [2] | KRas wild type + SOS: % inh. [3] | KRas wild type: % inh. [3] | inhibition at 20 µM [4] [%] | Structure (SMILES) | % inh of Akt phosphorylation in Panc-1 [1] |
| --- | --- | --- | --- | --- | --- | --- |
| A (A = 1-25% inhibition) | C (C = 50-75% inhibition) | 0 (0 = 0% inhibition) | 0 (0 = 0% inhibition) | 1 to 25 | COc1cccc(-c2cn3nc(-c4nccn4C)nc(N[C@@H]4CC[C@H]4OC)c3c2-c2ccccc2)c1C (racemic) [Compound 272, rac 6-(3-Methoxy-2-methylphenyl)-N-((1R,2R)-2-methoxycyclobutyl)-2-(1-methyl-1H-imidazol-2-yl)-5-phenylpyrrolo[2,1-f][1,2,4]triazin-4-amine] | D (85-100% inhibition) |
| C (C = 50-75% inhibition) | C (C = 50-75% inhibition) | D (D = 76-100% inhibition) | D (D = 76-100% inhibition) | 50 to 75 | CCOc1cc(Nc2nc(-c3nccn3C)nn3cc(-c4ccn(C)n4)c(C)c23)n[nH]1 [Compound 260, N-(5-Ethoxy-1H-pyrazol-3-yl)-5-methyl-2-(1-methyl-1H-imidazol-2-yl)-6-(1-methyl-1H-pyrazol-3-yl)pyrrolo[2,1-f][1,2,4]triazin-4-amine] | C* (46-84% activation) |
| D (D = 76-100% inhibition) | D (D = 76-100% inhibition) | D (D = 76-100% inhibition) | C (C = 50-75% inhibition) | 50 to 75 | Cc1c(-c2ccn(C)n2)cn2nc(-c3nccn3C)nc(Nc3cc(C4CCC4)[nH]n3)c12 [Compound 257, N-(5-Cyclobutyl-1H-pyrazol-3-yl)-5-methyl-2-(1-methyl-1H-imidazol-2-yl)-6-(1-methyl-1H-pyrazol-3-yl)pyrrolo[2,1-f][1,2,4]triazin-4-amine] | D* (85-100% activation) |
| D (D = 76-100% inhibition) | D (D = 76-100% inhibition) | C (C = 50-75% inhibition) | D (D = 76-100% inhibition) | 76 to 100 | Cc1c(-c2ccn(C)n2)cn2nc(-c3nccn3C)nc(Nc3cc(-c4ccncc4)[nH]n3)c12 [Compound 266, 5-Methyl-2-(1-methyl-1H-imidazol-2-yl)-6-(1-methyl-1H-pyrazol-3-yl)-N-(5-(pyridin-4-yl)-1H-pyrazol-3-yl)pyrrolo[2,1-f][1,2,4]triazin-4-amine] | D* (85-100% activation) |
| B (B = 26-49% inhibition) | C (C = 50-75% inhibition) | A (A = 1-25% inhibition) | B (B = 26-49% inhibition) | 26 to 49 | Cc1c(-c2ccn(C)n2)cn2nc(-c3nccn3C)nc(N3CCc4cc(C(F)(F)F)cnc43)c12 [Compound 251, 5-Methyl-2-(1-methyl-1H-imidazol-2-yl)-6-(1-methyl-1H-pyrazol-3-yl)-4-(5-(trifluoromethyl)-2,3-dihydro-1H-pyrrolo[2,3-b]pyridin-1-yl)pyrrolo[2,1-f][1,2,4]triazine] | A (1-25% inhibition) |
